Reference: patent US6875737B1, “Multivalent compounds for crosslinking receptors and uses thereof” (Trustees of Tufts College, priority 1996, dated 2005)
Where two headings read alike, the source gives them in different places. Marks after values point to notes of the source that are not given here. Each block holds one molecule with its values, some of them ahead of it. Ends that are not written are not given here.

Key:
[1] = test system: Dipeptidyl Peptidase IV (DP IV, CD26); assay: Inhibition of DP IV (CD26) proteinase activity, Ki; type: biochemical; settings: soluble DP IV (CD26)
Description: Assays to measure CD26 (DP IV) activity will be performed on both the homobivalent compounds, e.g., Lys-boroPro coupled to another, and the heterobivalent compounds, e.g., Lys-boroPro coupled to a peptide specific for a T cell surface receptor, e.g., moth cytochrome C peptide. Methods for quantitatively measuring the interaction of small peptidomimetic inhibitors with CD26 or DP IV, as well as for the interaction of CD26 with larger ligands, e.g., the HIV Tat protein, have been developed (W. G. Gutheil and W. W. Bachovchin. Separation of L-Pro-DL-boroPro into Its Component Diastereomers and Kinetic analysis of Their Inhibition of Dipeptidyl Peptidase IV. A New Method for the Analysis of Slow, Tight-Binding Inhibition, Biochemistry 32, 8723-8731 (1993); Gutheil, W. G., and W., B. W. Kinlsq, A Matlab Program for Fitting Kinetics Data with Numerically Integrated Rate Equations and Its Application to the Analysis of Slow, Tight Binding Data, Analytical Biochemistry 223, 13-20 (1994); Gutheil, W. G., Subramanyam, M., Flentke, G. R., Sanford, D. G., Munoz, E., Huber, B. T., and Bachovchin, W. W. HIV-1 Tat Binds to DP IV (CD26): A possible Mechanism for Tat's Immunosuppressive Activity, Proc. Natl. Acad. Sci. U.S.A. 91, 6594-6598 (1994)). These methods use the chromatogenic substrate Ala-Pro-p-nitroanilide (APpNA) and fluorescent substrate Ala-Pro-7-amino-4-trifluoromethyl coumarin (AP-AFC). APpNA and AP-AFC are commercially available (e.g., Enzyme Systems Products, Dublin, Calif.).

[2] = mice; cited from earlier work
H9 cells [3] = assay: H9 cell viability, trypan blue hemocytometry counts and flow cytometry; type: cell-based
Description: Possible explanations for the observed inhibitory activity shown in FIG. 3 were eliminated with proper negative controls.

H9 cells [4] = assay: IL-2 production by H9 cells stimulated with anti-CD3 mAb OKT3 (HT2 bioassay); type: cell-based
Protocol: To determine the effect KbP2-Adipate had on anti-CD3 mAb stimulation of H9 cells, e.g., stimulation of suppressing IL-2 production, the following protocol was used.
In quadruplicate wells, H9 cells were preincubated with KbP2-Adipate for 0, 30, 60, or 150 min. After the preincubation, the cells were seeded into a 96 well flatbottom plate pre-coated with anti-CD3 monoclonal antibody OKT3 at 1,000, 5,000, 10,000, 20,000, 50,000, or 100,000 times dilution of stock. After 24 hr, the cells were lysed by freezing at […]. IL-2 concentration in the H9 cells lysates was bioassayed using the IL-2 dependent cell line HT2, Watson, J. D. “Continuous proliferation of murine antigen specific helper T lymphocytes in culture,” 1979, Journal of Experimental Medicine, 150:1510. HT2 proliferation was measured by counting 3H-thymidine incorporation.
Similar experiments were carried out with (KbP)2-EGS and the co-stimulatory antibody OKT3; the results of these experiments are shown in FIG. 12.

[5] = Conformational equilibrium of cyclic and open chain forms; type: physicochemical; settings: at equilibrium at pH 7.0
Description: G. Gutheil and W. W. Bachovchin, separation of L-Pro-DL-boroPro into Its Component Diastereomers and Kinetic Analysis of Their Inhibition of Dipeptidyl Peptidase IV. A New Method for the Analysis of Slow, Tight-Binding Inhibition, Biochemistry 32, 8723-8731 (1993)).

[6] = test system: Dipeptidyl Peptidase IV (DP IV, CD26); settings: cited from earlier work
[7] = test system: T cell clone 2E5.G10.G5.E5; assay: T cell clone proliferation, thymidine uptake; type: cell-based
Protocol: (§1) The proliferative effect of PLP-S-KbP on several different T cell clones that recognize PLP 139-151 were tested. T cell clones that recognize an irrelevant epitope, were used as negating controls. The protocol used is described (Kuchroo, V. K., et al., B7-1 and B7-2 Costimulatory Molecules Activate Differentially the Th1/Th2 Developmental Pathways: Application to Autoimmune Disease Therapy, Cell 80, 707-718 (1995)) and is incorporated herein by reference. Proliferation was measured by thymidine uptake. Table 1 below compares the effect PLP-S-KbP, antigenic PLP 139-151 peptide and non-antigenic PLP 103-116 peptide has on proliferation in different five PLP 139-151 specific T cell clones.

[8] = test system: T cell clone SPL.C1.H2.F2; assay: T cell clone proliferation, thymidine uptake; type: cell-based
Protocol: as §1

T cell clone 7A5.F10.G11 = assay: T cell clone proliferation, thymidine uptake; type: cell-based
Protocol: as §1

[9] = test system: T cell clone 4E3.B11.D9.H10.H6; assay: T cell clone proliferation, thymidine uptake; type: cell-based
Protocol: as §1

[10] = test system: T cell clone 5B8.G8.E6.H12; assay: T cell clone proliferation, thymidine uptake; type: cell-based
Protocol: as §1

DP IV inhibition [1]: non inhibitory
Molecule: NCCCC[C@H](N)C(=O)N1CCC[C@H]1B(O)O (single isomer, unassigned) [L,D isomer, Lys-boroPro]

DP IV inhibition [1]: inhibitory
Molecule: NCCCC[C@H](N)C(=O)N1CCC[C@H]1B(O)O (single isomer, unassigned) [L,L isomer, Lys-boroPro]

Molecule: C[C@H](N)C(=O)N1CCC[C@H]1B(O)O [Ala-boroPro]
immune response in vivo (antibody production after antigen challenge) [2]: inhibited an immune response in vivo in mice

Molecule: N[C@@H](CCCCNC(=O)CCCCC(=O)NCCCC[C@H](N)C(=O)N1CCC[C@H]1B(O)O)C(=O)N1CCC[C@H]1B(O)O [KbP2-Adipate, di(L-Lysine-L-boroProline)adipate]
cell viability (H9 cells [3]): did not affect cell viability | shape of dose response on IL-2 production (H9 cells [4]): decreases with increasing KbP2-Adipate concentrations | suppression of IL-2 production (H9 cells [4]; 4.0×10^−10 M, anti-CD3 mAb stimulation of H9 cells (FIG. 4)): 98% | concentration range where stimulatory effect begins (H9 cells [4]; FIG. 5): ~1 pM | concentration range where stimulatory effect saturates (H9 cells [4]; FIG. 5): ~10 mM | augmentation of IL-2 production (co-stimulatory activity) (H9 cells [4]; higher concentrations (FIG. 5), depends on concentration and preincubation time): up to 4 fold | effect on IL-2 production (H9 cells [4]; higher concentrations, e.g. 10^−6 M (FIG. 5)): potent stimulator | effect on IL-2 production (H9 cells [4]; lower concentrations, e.g. 10^−10 M (FIG. 4)): potent inhibitor

DP IV inhibition [1]: potent inhibitors
Molecule: CC(N)C(=O)N1CCCC1B(O)O [L-Ala-D,L-boroPro]

DP IV inhibition [1]: potent inhibitors
Molecule: O=C(C1CCCN1)N1CCCC1B(O)O [L-Pro-D,L-boroPro]

fraction existing as open chain, inhibitory species [5]: less than 1%
Molecule: O=C(C1CCCN1)N1CCCC1B(O)O (stereo not shown) [Pro-boroPro]
immune response in vivo (antibody production after antigen challenge) [2]: inhibited an immune response in vivo in mice

Molecule: CC(C)C(N)C(=O)N1CCCC1B(O)O (stereo not shown) [Val-boroPro]
fraction existing as open chain, inhibitory species [5]: less than 0.1%

Molecule: OB(O)C1CCCN1 (stereo not shown) [boroPro]
DP IV inhibition [6]: not an effective inhibitor

Molecule: HSLGKWLGHPDKF [PLP 139-151, peptide corresponding to residues 139-151 of myelin proteolipid protein]
proliferation, thymidine uptake ([7]; dose 0.1 μM): 101 ^3H counts | proliferation, thymidine uptake ([7]; dose 1 μM): 288 ^3H counts | proliferation, thymidine uptake ([7]; dose 10 μM): 70 ^3H counts | proliferation, thymidine uptake ([7]; dose 100 μM): 1,506 ^3H counts | proliferation, thymidine uptake ([8]; dose 0.1 μM): 423 ^3H counts | proliferation, thymidine uptake ([8]; dose 1 μM): 107 ^3H counts | proliferation, thymidine uptake ([8]; dose 10 μM): 400 ^3H counts | proliferation, thymidine uptake ([8]; dose 100 μM): 809 ^3H counts | proliferation, thymidine uptake (T cell clone 7A5.F10.G11; dose 0.1 μM): 117 ^3H counts | proliferation, thymidine uptake (T cell clone 7A5.F10.G11; dose 1 μM): 222 ^3H counts | proliferation, thymidine uptake (T cell clone 7A5.F10.G11; dose 10 μM): 406 ^3H counts | proliferation, thymidine uptake (T cell clone 7A5.F10.G11; dose 100 μM): 2,324 ^3H counts | proliferation, thymidine uptake ([9]; dose 0.1 μM): 318 ^3H counts | proliferation, thymidine uptake ([9]; dose 1 μM): 125 ^3H counts | proliferation, thymidine uptake ([9]; dose 10 μM): 534 ^3H counts | proliferation, thymidine uptake ([9]; dose 100 μM): 1,932 ^3H counts | proliferation, thymidine uptake ([10]; dose 0.1 μM): 106 ^3H counts | proliferation, thymidine uptake ([10]; dose 1 μM): 349 ^3H counts | proliferation, thymidine uptake ([10]; dose 10 μM): 9,176 ^3H counts | proliferation, thymidine uptake ([10]; dose 100 μM): 41,073 ^3H counts

Molecule: HSLGKWLGHPDKFAAAAAA-εKbP (not fully specified (C-terminus); printed as HSLGKWLGHPDKFAAAAAA-εKbP; also: C-terminus joined to epsilon-amino of Lys, which carries boroPro) [PLP-S-KbP, Lys-boroPro linked by its ε-amino group via six alanines to the C terminus of PLP 139-151]
proliferation, thymidine uptake ([7]; dose 0.1 μM): 175 ^3H counts | proliferation, thymidine uptake ([7]; dose 1 μM): 7,738 ^3H counts | proliferation, thymidine uptake ([7]; dose 10 μM): 26,410 ^3H counts | proliferation, thymidine uptake ([7]; dose 100 μM): 36,686 ^3H counts | proliferation, thymidine uptake ([8]; dose 0.1 μM): 681 ^3H counts | proliferation, thymidine uptake ([8]; dose 1 μM): 2,527 ^3H counts | proliferation, thymidine uptake ([8]; dose 10 μM): 17,516 ^3H counts | proliferation, thymidine uptake ([8]; dose 100 μM): 31,635 ^3H counts | proliferation, thymidine uptake (T cell clone 7A5.F10.G11; dose 0.1 μM): 187 ^3H counts | proliferation, thymidine uptake (T cell clone 7A5.F10.G11; dose 1 μM): 8,202 ^3H counts | proliferation, thymidine uptake (T cell clone 7A5.F10.G11; dose 10 μM): 35,521 ^3H counts | proliferation, thymidine uptake (T cell clone 7A5.F10.G11; dose 100 μM): 43,999 ^3H counts | proliferation, thymidine uptake ([9]; dose 0.1 μM): 3,688 ^3H counts | proliferation, thymidine uptake ([9]; dose 1 μM): 8,580 ^3H counts | proliferation, thymidine uptake ([9]; dose 10 μM): 15,753 ^3H counts | proliferation, thymidine uptake ([9]; dose 100 μM): 17,608 ^3H counts | proliferation, thymidine uptake ([10]; dose 1 μM): 22,022 ^3H counts | proliferation, thymidine uptake ([10]; dose 10 μM): 53,628 ^3H counts | proliferation, thymidine uptake ([10]; dose 100 μM): 34,716* ^3H counts

Molecule: PLP103-116: non-antigenic PLP 103-116 peptide (DYKTTICGKGLSAT)
proliferation, thymidine uptake ([7]; dose 0.1 μM): 307 ^3H counts | proliferation, thymidine uptake ([7]; dose 1 μM): 434 ^3H counts | proliferation, thymidine uptake ([7]; dose 10 μM): 60 ^3H counts | proliferation, thymidine uptake ([7]; dose 100 μM): 107 ^3H counts | proliferation, thymidine uptake ([8]; dose 0.1 μM): 238 ^3H counts | proliferation, thymidine uptake ([8]; dose 1 μM): 123 ^3H counts | proliferation, thymidine uptake ([8]; dose 10 μM): 479 ^3H counts | proliferation, thymidine uptake ([8]; dose 100 μM): 150 ^3H counts | proliferation, thymidine uptake (T cell clone 7A5.F10.G11; dose 0.1 μM): 556 ^3H counts | proliferation, thymidine uptake (T cell clone 7A5.F10.G11; dose 1 μM): 314 ^3H counts | proliferation, thymidine uptake (T cell clone 7A5.F10.G11; dose 10 μM): 117 ^3H counts | proliferation, thymidine uptake (T cell clone 7A5.F10.G11; dose 100 μM): 124 ^3H counts | proliferation, thymidine uptake ([9]; dose 0.1 μM): 178 ^3H counts | proliferation, thymidine uptake ([9]; dose 1 μM): 559 ^3H counts | proliferation, thymidine uptake ([9]; dose 10 μM): 224 ^3H counts | proliferation, thymidine uptake ([9]; dose 100 μM): 274 ^3H counts | proliferation, thymidine uptake ([10]; dose 0.1 μM): 124 ^3H counts | proliferation, thymidine uptake ([10]; dose 1 μM): 226 ^3H counts | proliferation, thymidine uptake ([10]; dose 10 μM): 74 ^3H counts | proliferation, thymidine uptake ([10]; dose 100 μM): 143 ^3H counts
